# Patent US20080139558A1, “QUINOLONES USEFUL AS INDUCIBLE NITRIC OXIDE SYNTHASE INHIBITORS” (KALYPSYS, INC., priority 2006, published 2008)
# Biological target: T1, human iNOS (Homo sapiens, UniProt P35228)
# T1 construct: expressed in transfected cells; host or cells: HEK293
# Assay: DAN assay of nitric oxide production (hiNOS)
# Assay type: cell-based
# Details: enzyme expressed in HEK293 cells transiently transfected with human iNOS
# From the text: The source of nitric oxide synthase (NOS) enzyme can be generated in several ways including induction of endogenous iNOS using cytokines and/or lipopolysaccharide (LPS) in various cell types known in the art. Alternatively, the gene encoding the enzyme can be cloned and the enzyme can be generated in cells via heterologous expression from a transient or stable expression plasmid with suitable features for protein expression as are known in the art. Enzymatic activity (nitric oxide production) is calcium independent for iNOS, while the constitutive NOS isoforms, nNOS and eNOS, become active with the addition of various cofactors added to cellular media or extract as are well known in the art. Enzymes specified in Table 1 were expressed in HEK293 cells transiently transfected with human iNOS.
# A major metabolic pathway for nitric oxide is to nitrate and nitrite, which are stable metabolites within tissue culture, tissue, plasma, and urine (S Moncada, A Higgs, N Eng J Med 329, 2002 (1993)).
# The level of nitrate or nitrite in the specimen can be quantified by any method known in the art which provides adequate sensitivity and reproducibility. A variety of protocols have also been described for detecting and quantifying nitrite and nitrate levels in biological fluids by ion chromatography (e.g., A Everett et al., J. Chromatogr. 706, 437 (1995); J M Monaghan et al., J. Chromatogr. 770, 143 (1997)), high-performance liquid chromatography (e.g., M Kelm et al., Cardiovasc. Res. 41, 765 (1999)), and capillary electrophoresis (MA Friedberg et al., J. Chromatogr. 781, 491 (1997)). For example, 2,3-diaminonaphthalene reacts with the nitrosonium cation that forms spontaneously from NO to form the fluorescent product 1H-naphthotriazole. Using 2,3-diaminonaphthalene (“DAN”), researchers have developed a rapid, quantitative fluorometric assay that can detect from 10 nM to 10 μM nitrite and is compatible with a multi-well microplate format. […] DAN reacts with nitrite ion and gives fluorescent naphthotriazole (MC Carré et al., Analusis 27, 835-838 (1999)). Table 1 provides the test results of various compounds of the subject invention using the DAN assay.
# A specimen can be processed prior to determination of nitrate or nitrite as required by the quantification method, or in order to improve the results, or for the convenience of the investigator. For example, processing can involve centrifuging, filtering, or homogenizing the sample. If the sample is whole blood, the blood can be centrifuged to remove cells and the nitrate or nitrite assay performed on the plasma or serum fraction. If the sample is tissue, the tissue can be dispersed or homogenized by any method known in the art prior to determination of nitrate or nitrite. It may be preferable to remove cells and other debris by centrifugation or another method and to determine the nitrate or nitrite level using only the fluid portion of the sample, or the extracellular fluid fraction of the sample. The sample can also be preserved for later determination, for example by freezing of urine or plasma samples. When appropriate, additives may be introduced into the specimen to preserve or improve its characteristics for use in the nitrate or nitrite assay.
# The “level” of nitrate, nitrite, or other NO-related product usually refers to the concentration (in moles per liter, micromoles per liter, or other suitable units) of nitrate or nitrite in the specimen, or in the fluid portion of the specimen. However, other units of measure can also be used to express the level of nitrate or nitrite. For example, an absolute amount (in micrograms, milligrams, nanomoles, moles, or other suitable units) can be used, particularly if the amount refers back to a constant amount (e.g., grams, kilograms, milliliters, liters, or other suitable units) of the specimens under consideration. A number of commercially available kits can be used. […]
# T1 sequence (P35228 whole entry): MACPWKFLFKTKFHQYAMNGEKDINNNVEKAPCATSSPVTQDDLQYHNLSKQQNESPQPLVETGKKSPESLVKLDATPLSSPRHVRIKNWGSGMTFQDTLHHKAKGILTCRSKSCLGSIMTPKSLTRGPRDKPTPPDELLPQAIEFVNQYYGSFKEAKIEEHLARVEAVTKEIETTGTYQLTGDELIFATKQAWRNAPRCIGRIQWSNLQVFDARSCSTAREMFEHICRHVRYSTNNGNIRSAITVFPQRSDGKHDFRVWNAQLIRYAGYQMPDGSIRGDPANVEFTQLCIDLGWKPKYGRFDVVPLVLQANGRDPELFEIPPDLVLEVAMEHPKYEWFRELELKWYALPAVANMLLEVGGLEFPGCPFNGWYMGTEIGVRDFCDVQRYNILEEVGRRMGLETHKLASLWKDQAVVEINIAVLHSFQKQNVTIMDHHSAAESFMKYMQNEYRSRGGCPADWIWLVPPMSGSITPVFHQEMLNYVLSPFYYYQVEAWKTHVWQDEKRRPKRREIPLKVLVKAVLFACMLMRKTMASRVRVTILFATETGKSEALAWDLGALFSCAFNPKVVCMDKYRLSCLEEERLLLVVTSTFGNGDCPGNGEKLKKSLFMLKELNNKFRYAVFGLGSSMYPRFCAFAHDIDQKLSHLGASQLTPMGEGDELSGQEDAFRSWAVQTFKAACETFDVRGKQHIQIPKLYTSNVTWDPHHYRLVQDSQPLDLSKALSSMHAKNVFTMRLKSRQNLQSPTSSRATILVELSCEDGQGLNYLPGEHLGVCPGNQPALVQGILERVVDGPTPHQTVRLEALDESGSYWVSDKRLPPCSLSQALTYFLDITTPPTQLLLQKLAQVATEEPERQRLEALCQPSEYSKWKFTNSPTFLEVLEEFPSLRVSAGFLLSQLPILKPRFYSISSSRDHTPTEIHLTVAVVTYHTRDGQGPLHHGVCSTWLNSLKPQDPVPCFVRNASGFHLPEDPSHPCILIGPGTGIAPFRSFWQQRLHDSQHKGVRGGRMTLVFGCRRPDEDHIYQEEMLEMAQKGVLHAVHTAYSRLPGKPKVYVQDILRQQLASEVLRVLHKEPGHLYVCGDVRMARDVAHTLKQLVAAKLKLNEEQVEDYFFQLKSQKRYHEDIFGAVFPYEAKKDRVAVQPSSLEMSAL
row,SMILES,EC50 [µM]
1,"CN(Cc1cc(=O)[nH]c2ccccc12)c1ccccc1 [Example 15, 4-[(Methyl-phenyl-amino)-methyl]-1H-quinolin-2-one]",≤ 5
2,"O=c1cc(CN(Cc2ccco2)c2ccccc2)c2ccccc2[nH]1 [Example 22, 4-(((Furan-2-ylmethyl)(phenyl)amino)methyl)quinolin-2(1H)-one]",≤ 5
3,"O=c1cc(CN(CCc2ccco2)c2ccccc2)c2ccccc2[nH]1 [Example 23, 4-(((2-(Furan-2-yl)ethyl)(phenyl)amino)methyl)quinolin-2(1H)-one]",≤ 5
4,"O=c1cc(CN(CCCc2ccco2)c2ccccc2)c2ccccc2[nH]1 [Example 24, 4-(((3-(Furan-2-yl)propyl)(phenyl)amino)rmethyl)quinolin-2(1H)-one]",≤ 5
5,"O=C(Cc1ccccc1)N(Cc1cc(=O)[nH]c2ccccc12)c1ccccc1 [Example 25, N-((2-Oxo-1,2-dihydroquinolin-4-yl)methyl)-N,2-diphenylacetamide]",≤ 5
6,"O=C(c1cncs1)N(Cc1cc(=O)[nH]c2ccccc12)c1ccccc1 [Example 27, N-((2-Oxo-1,2-dihydroquinolin-4-yl)methyl)-N-phenylthiazole-5-carboxamide]",> 5
7,"O=C(c1cscn1)N(Cc1cc(=O)[nH]c2ccccc12)c1ccccc1 [Example 28, N-((2-Oxo-1,2-dihydroquinolin-4-yl)methyl)-N-phenylthiazole-4-carboxamide]",> 5
8,"Cc1ncsc1C(=O)N(Cc1cc(=O)[nH]c2ccccc12)c1ccccc1 [Example 29, 4-Methyl-N-((2-oxo-1,2-dihydroquinolin-4-yl)methyl)-N-phenylthiazole-5-carboxamide]",> 5
9,"Cc1noc(C)c1C(=O)N(Cc1cc(=O)[nH]c2ccccc12)c1ccccc1 [Example 30, 3,5-Dimethyl-N-((2-oxo-1,2-dihydroquinolin-4-yl)methyl)-N-phenylisoxazole-4-carboxamide]",> 5
10,"O=C(c1ccccn1)N(Cc1cc(=O)[nH]c2ccccc12)c1ccccc1 [Example 32, N-((2-Oxo-1,2-dihydroquinolin-4-yl)methyl)-N-phenylpicolinamide]",> 5
11,"O=C(c1cccnc1)N(Cc1cc(=O)[nH]c2ccccc12)c1ccccc1 [Example 33, N-((2-Oxo-1,2-dihydroquinolin-4-yl)methyl)-N-phenylnicotinamide]",> 5
12,"O=C(c1ccncc1)N(Cc1cc(=O)[nH]c2ccccc12)c1ccccc1 [Example 34, N-((2-Oxo-1,2-dihydroquinolin-4-yl)methyl)-N-phenylisonicotinamide]",> 5
13,"Cc1cnc(C(=O)N(Cc2cc(=O)[nH]c3ccccc23)c2ccccc2)cn1 [Example 35, 5-Methyl-N-((2-oxo-1,2-dihydroquinolin-4-yl)methyl)-N-phenylpyrazine-2-carboxamide]",≤ 5
14,"O=C(c1cnccn1)N(Cc1cc(=O)[nH]c2ccccc12)c1ccccc1 [Example 36, N-((2-Oxo-1,2-dihydroquinolin-4-yl)methyl)-N-phenylpyrazine-2-carboxamide]",> 5
15,"Cc1ncccc1C(=O)N(Cc1cc(=O)[nH]c2ccccc12)c1ccccc1 [Example 37, 2-Methyl-N-((2-oxo-1,2-dihydroquinolin-4-yl)methyl)-N-phenylnicotinamide]",≤ 5
16,"Cc1cccnc1C(=O)N(Cc1cc(=O)[nH]c2ccccc12)c1ccccc1 [Example 38, 3-Methyl-N-((2-oxo-1,2-dihydroquinolin-4-yl)methyl)-N-phenylpicolinamide]",> 5
17,"Cc1ncsc1C(=O)N(Cc1cc(=O)[nH]c2ccccc12)c1ccc(F)c(Cl)c1 [Example 39, N-(3-Chloro-4-fluorophenyl)-4-methyl-N-((2-oxo-1,2-dihydroquinolin-4-yl)methyl)thiazole-5-carboxamide]",> 5
18,"Cc1ncsc1C(=O)N(Cc1cc(=O)[nH]c2ccccc12)c1cccc(C(F)(F)F)c1 [Example 40, 4-Methyl-N-((2-oxo-1,2-dihydroquinolin-4-yl)methyl)-N-(3-(trifluoromethyl)phenyl)thiazole-5-carboxamide]",> 5
19,Cc1ncsc1C(=O)N(Cc1cc(=O)[nH]c2ccccc12)c1ccc(F)c(F)c1 [Example 41],> 5
20,"Cc1ncsc1S(=O)(=O)N(Cc1cc(=O)[nH]c2c(F)cccc12)c1cccc(Cl)c1 [Example 42, N-(3-Chlorophenyl)-N-((8-fluoro-2-oxo-1,2-dihydroquinolin-4-yl)methyl)-4-methylthiazole-5-sulfonamide]",≤ 5
21,"Cc1ncsc1C(=O)N(Cc1cc(=O)[nH]c2c(F)cccc12)c1cccc(Cl)c1 [Example 43, N-(3-Chlorophenyl)-N-((8-fluoro-2-oxo-1,2-dihydroquinolin-4-yl)methyl)-4-methylthiazole-5-carboxamide]",> 5
22,"O=C(c1cncs1)N(Cc1cc(=O)[nH]c2c(F)cccc12)c1cccc(Cl)c1 [Example 44, N-(3-Chlorophenyl)-N-((8-fluoro-2-oxo-1,2-dihydroquinolin-4-yl)methyl)thiazole-5-carboxamide]",> 5
23,"Cc1ncsc1CN(Cc1cc(=O)[nH]c2c(F)cccc12)c1cccc(Cl)c1 [Example 45, 4-(((3-Chlorophenyl)((4-methylthiazol-5-yl)methyl)amino)methyl)-8-fluoroquinolin-2(1H)-one]",≤ 5

# Now from value to compound:
row,EC50 [µM],SMILES
1,≤ 5,"Cc1ccc(N(Cc2cc(=O)[nH]c3ccccc23)C(=O)c2ccco2)cc1 [Example 11, N-(4-Methylphenyl)-N-[(2-oxo-1,2-dihydroquinolin-4-yl)methyl]-2-furamide]"
2,≤ 5,"O=C(c1ccco1)N(Cc1cc(=O)[nH]c2ccccc12)c1ccncc1 [Example 13, N-[(2-Oxo-1,2-dihydroquinolin-4-yl)methyl]-N-pyridin-4-yl-2-furamide]"
3,> 5,"O=C(c1ccco1)N(Cc1cc(=O)[nH]c2ccccc12)c1cccc(Cl)c1 [Example 14, N-(3-Chlorophenyl)-N-[(2-oxo-1,2-dihydroquinolin-4-yl)methyl]-2-furamide]"
4,≤ 5,"Cc1cccc2c(CN(C(=O)c3ccco3)c3ccccc3)cc(=O)[nH]c12 [Example 16, N-((8-Methyl-2-oxo-1,2-dihydroquinolin-4-yl)methyl)-N-phenylfuran-2-carboxamide]"
5,> 5,"O=C(c1ccco1)N(Cc1cc(=O)[nH]c2c(F)cccc12)c1ccccc1 [Example 17, N-((8-Fluoro-2-oxo-1,2-dihydroquinolin-4-yl)methyl)-N-phenylfuran-2-carboxamide]"
6,> 5,"O=C(c1ccco1)N(Cc1cc(=O)[nH]c2ccc(F)cc12)c1ccccc1 [Example 18, N-((6-Fluoro-2-oxo-1,2-dihydroquinolin-4-yl)methyl)-N-phenylfuran-2-carboxamide]"
7,≤ 5,"COc1ccc2[nH]c(=O)cc(CN(C(=O)c3ccco3)c3ccccc3)c2c1 [Example 19, N-((6-Methoxy-2-oxo-1,2-dihydroquinolin-4-yl)methyl)-N-phenylfuran-2-carboxamide]"
8,≤ 5,"Cc1ccc2c(CN(C(=O)c3ccco3)c3ccccc3)cc(=O)[nH]c2c1 [Example 20, N-((7-Methyl-2-oxo-1,2-dihydroquinolin-4-yl)methyl)-N-phenylfuran-2-carboxamide]"
9,≤ 5,"Cc1ccc2[nH]c(=O)cc(CN(C(=O)c3ccco3)c3ccccc3)c2c1 [Example 21, N-((6-Methyl-2-oxo-1,2-dihydroquinolin-4-yl)methyl)-N-phenylfuran-2-carboxamide]"
10,> 5,"O=C(c1ccoc1)N(Cc1cc(=O)[nH]c2ccccc12)c1ccccc1 [Example 26, N-((2-Oxo-1,2-dihydroquinolin-4-yl)methyl)-N-phenylfuran-3-carboxamide]"
11,> 5,"Cc1oncc1C(=O)N(Cc1cc(=O)[nH]c2ccccc12)c1ccccc1 [Example 31, 5-Methyl-N-((2-oxo-1,2-dihydroquinolin-4-yl)methyl)-N-phenylisoxazole-4-carboxamide]"
